Read-outs that look alike come from different tables or passages of the source.

Data set [1] concerns the target recombinant POPTc80 (Trypanosoma cruzi, UniProt Q4E132). Kind of data set: POPTc80 enzyme inhibition and kinetic assay (Suc-GPLGP-AMC fluorogenic substrate). Format: biochemical. How it is done: The enzyme activity was assessed using the fluorogenic substrate Suc-GPLGP-AMC previously described by Santana et al.[14] A total of 20 ng of pure recombinant POPTc80 was incubated with 20 μM Suc-GPLGP-AMC in a 25 mM HEPES buffer containing 5 mM DTT at pH 7.5. The release of AMC was monitored over a period of 20 min by measuring its emission at 460 nm, following excitation at 355 nm, using a 96-well microplate fluorescence reader (M5, Molecular Devices). The IC50 values were obtained by a series of at least 9 points from 200 to 0.01 μM of the compound, plus the control. The data were subjected to a four-parameter logistic (4 PL) nonlinear regression model using GraphPad Prism 8 software to calculate the IC50. […] Active enzyme concentration was determined by titration with a chloromethyl ketone irreversible inhibitor of POPTc80.[13] All kinetic parameters were determined by nonlinear regression employing the GraphPad Prism enzyme kinetics module and Hanes-Woolf plots.[64]

Data set [2] concerns T. cruzi strain Y trypomastigotes. Kind of data set: Host cell infection inhibition assay (trypomastigote entry into L6 cells). Format: cell-based, Trypanosoma cruzi. The conditions noted are these: 1 h preincubation, 3 h infection, 72 h culture. How it is done:
The assay was performed as previously described by Grellier et al.,[15] with slight modifications. Briefly, L6 cells were seeded in flasks containing RPMI medium supplemented with 5% fetal bovine serum and 1% penicillin/streptomycin (Gibco 15140122) and incubated at 37 °C in a 5% CO2 atmosphere. Trypomastigotes of T. cruzi strain Y were preincubated for 1 h at 37 °C in a culture medium containing different concentrations of inhibitors (0–200 μM, five points). Subsequently, they were added to L6 cell cultures that had been previously grown for 24h in 96-well plates (1000 cells/well) at a trypomastigote-to-host cell ratio of 30:1. After 3 h incubation at 37 °C, the wells were washed three times with inhibitor-free culture medium, and the cells were maintained for 72 h without inhibitors before fixation and staining with panoptic stain. The percentage of infected cells was determined by counting at least 200 host cells under 400-fold magnification. The inhibition of host cell invasion was calculated by comparing the percentage of infected cells in treated wells to that in untreated control wells. The concentration required to inhibit 50% of invasion (EC50) was determined using a nonlinear regression model applied to dose–response curves in GraphPad Prism v.8.

Data set [3] is described as follows: Cytotoxicity assay (resazurin). Conditions: rat, L6 cells, pH 7.4; 72 h incubation. Format: cell-based. How it is done: L6 cells were cultured in 96-well plates at a density of 1 × 10^4 cells/well in 100 μL of RPMI 1640 medium supplemented with 10% heat-inactivated fetal bovine serum (FBS) and 25 mM HEPES pH 7.4, maintained at 37 °C, under a 5% CO2 atmosphere. After 24h, the compounds were diluted, starting at a concentration of 200 μM, in 100 μL of complete culture medium per well. Subsequently, 100 μL of the diluted compounds were added to the seeded cells. After 72 h of incubation, Resazurin solution (Sigma) was added to a final concentration of 20 μM and incubated for another 4h at 37 °C. Fluorescence was then measured at 570 nm (excitation) and 595 nm (emission) using a SpectraMax M5 microplate reader (Molecular Devices, Sunnyvale, CA, USA). The cytotoxic concentrations causing 50% inhibition of cell growth (CC50) were determined from data obtained in two independent experiments and calculated similarly to the EC50, as described above.
Background: The colour change of resazurin is a common sign of viable cells or microbes.

In data set [4] the test system is POPTc80. The conditions noted are these: cited from earlier work.
Data set [5] concerns T. cruzi. Set-up: method as in PMID 11598112. Conditions: phenotypic data; cited from earlier work.
Where [6] appears, read: 20 μM Suc-GPLGP-AMC, pH 7.5, means ± SD of three replications, read-out: POPTc80 IC50.
Where [7] appears, read: four compound and five substrate concentrations, means ± SD of three replications, read-out: POPTc80 Ki.
[8] abbreviates: Trypanosoma cruzi, L6, inhibition of host cell invasion.
Setting [9] is: inhibition of host cell invasion.

recombinant POPTc80, sequence (Q4E132 entry or part of it): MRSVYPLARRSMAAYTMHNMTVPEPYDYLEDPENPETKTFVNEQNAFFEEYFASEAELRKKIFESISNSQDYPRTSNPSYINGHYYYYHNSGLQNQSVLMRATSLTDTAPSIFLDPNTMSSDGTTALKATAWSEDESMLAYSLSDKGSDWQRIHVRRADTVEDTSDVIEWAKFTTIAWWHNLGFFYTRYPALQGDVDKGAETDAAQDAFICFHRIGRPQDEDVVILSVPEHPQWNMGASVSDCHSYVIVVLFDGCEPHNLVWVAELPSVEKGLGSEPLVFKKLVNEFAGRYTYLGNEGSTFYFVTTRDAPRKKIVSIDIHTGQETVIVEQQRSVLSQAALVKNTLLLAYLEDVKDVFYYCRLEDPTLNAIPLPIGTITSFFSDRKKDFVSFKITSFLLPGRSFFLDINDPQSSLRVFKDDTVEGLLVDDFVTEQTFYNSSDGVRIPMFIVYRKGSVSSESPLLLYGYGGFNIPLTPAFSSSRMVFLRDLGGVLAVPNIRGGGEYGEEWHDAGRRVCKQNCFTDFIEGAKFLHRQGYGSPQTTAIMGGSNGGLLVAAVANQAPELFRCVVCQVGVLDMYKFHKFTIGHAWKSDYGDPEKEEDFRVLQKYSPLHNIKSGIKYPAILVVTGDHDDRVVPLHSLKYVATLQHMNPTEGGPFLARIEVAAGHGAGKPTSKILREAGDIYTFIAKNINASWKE

With `O=C(NCCc1cnn(-c2ccccc2)c1)C1CCCCN1C(=O)C1CC1` (stereo not drawn) [LC-39], the IC50 (in general, the concentration at which inhibition is half-maximal) in data set [1] (setting [6]) is more than 20 µM.

Turning to `O=C(NCCCc1nc2cc(Cl)ccc2[nH]1)C1CCCCN1C(=O)C1CC1` (stereo not drawn) [LC-40], the IC50 in data set [1] (setting [6]) was more than 20 µM.

`O=C(NCCc1nccs1)C1CCCCN1C(=O)C1CC1` (stereo not drawn) [LC-41]: in data set [1] (setting [6]), the half-inhibitory concentration (IC50) is more than 20 µM.

For the compound `O=C(NCCc1nc2cc(F)ccc2[nH]1)C1CCCCN1C(=O)C1CC1` (stereo not drawn) [LC-42], in data set [1] (setting [6]), the IC50 is more than 20 µM.

Consider `O=C(NCCOc1cccc2cccnc12)C1CCCCC1C(=O)N1CCCC1` (stereo not drawn) [LC-44], for which the “POPTc80 LE (ligand efficiency)” value in data set [1] is listed as 0.33 kcal/mol per heavy atoms. Besides, in data set [1] (setting [6]), the IC50 is 0.64 ± 0.1 µM. In addition, the Ki (in general, the equilibrium dissociation constant of an inhibitor or competing ligand from its target) in data set [1] (setting [7]) was found to be 0.175 ± 0.031 µM. In addition, the figures for the EC50 in data set [2] (setting [8]) and in data set [2] (setting [9]) were 92.5 µM and 92.4 ± 3.74 µM, respectively. Also, in data set [3], the CC50 (commonly the concentration giving 50% cytotoxicity) at 72 h was more than 200 µM.

In the case of `O=C(NCCc1cscn1)C1CCCCC1C(=O)N1CCCC1` (stereo not drawn) [LC-45], in data set [1], the “POPTc80 LE (ligand efficiency)” value is 0.44 kcal/mol per heavy atoms. Moreover, the IC50 in data set [1] (setting [6]) was determined as 0.23 ± 0.08 µM. For the same compound, the inhibition constant (Ki) in data set [1] (setting [7]) is 0.054 ± 0.006 µM. In data set [2] (setting [8]), the EC50 (commonly the concentration at which the effect is half-maximal) came to 46.7 ± 3.55 µM. For the same compound, the CC50 at 72 h in data set [3] was more than 200 µM.

As to `O=C(NCCCc1ccccn1)C1CCCCC1C(=O)N1CCCC1` (stereo not drawn) [LC-46], the “POPTc80 LE (ligand efficiency)” value in data set [1] was 0.35 kcal/mol per heavy atoms. Moreover, the IC50 in data set [1] (setting [6]) is 0.4 ± 0.24 µM. Besides, in data set [1] (setting [7]), the Ki was found to be 0.513 ± 0.218 µM. In data set [2] (setting [8]), this compound registered an EC50 of 46.6 ± 20.8 µM. In data set [3], this compound displayed a CC50 at 72 h of more than 200 µM.

As to `Cc1nc2ccc(CNC(=O)C3CCCCC3C(=O)N3CCCC3)cc2[nH]1` (stereo not drawn) [LC-47], the “POPTc80 LE (ligand efficiency)” value in data set [1] was 0.30 kcal/mol per heavy atoms. The IC50 in data set [1] (read-out: POPTc80 IC50, 20 μM Suc-GPLGP-AMC, pH 7.5, means ± SD of three replications) turned out to be 1.21 ± 0.32 µM. In addition, in data set [1] (read-out: POPTc80 Ki, four compound and five substrate concentrations, means ± SD of three replications), the Ki was 1.99 ± 0.26 µM.

For `O=C(NCCc1cnccn1)C1CCCCC1C(=O)N1CCCC1` (stereo not drawn) [LC-48], the IC50 in data set [1] (setting [6]) came to 0.95 ± 0.1 µM.

For `Cc1csc(SCC(=O)N2CCCC2C(=O)N2CCOCC2)n1` (stereo not drawn) [LC-49], in data set [1] (setting [6]), the IC50 is more than 20 µM.

For `O=C(C1CCCN1C(=O)NCc1cc2ccccc2s1)N1CCOCC1` (stereo not drawn) [LC-50], in data set [1], the IC50 was 0.59 ± 0.19 µM, the inhibition constant (Ki) stood at 0.44 ± 0.09 µM and the “POPTc80 LE (ligand efficiency)” value amounted to 0.31 kcal/mol per heavy atoms. For the same compound, the midpoint of the response in data set [2] (setting [8]), the EC50, lay at 80.2 ± 5.27 µM. This compound also yielded a 50% cytotoxic concentration (CC50) at 72 h in data set [3] of more than 200 µM.

`Cn1c(CNC(=O)C2CCCCC2C(=O)N2CCCC2)nc2ccccc21` (stereo not drawn) [LC-53]: the “POPTc80 LE (ligand efficiency)” value in data set [1] is given as 0.35 kcal/mol per heavy atoms. Besides, the IC50 in data set [1] (setting [6]) came to 0.27 ± 0.07 µM. In data set [1] (setting [7]), the Ki came out at 0.158 ± 0.044 µM. For the same compound, the EC50 in data set [2] (setting [8]) is 24.9 ± 3.45 µM. This compound came in with a CC50 at 72 h in data set [3] of more than 200 µM.

Consider `Cc1cccc(NC(=O)CC(=O)N2CCCC2C(=O)N2CCOCC2)c1` (stereo not drawn) [LC-54], for which the half-inhibitory concentration (IC50) in data set [1] (setting [6]) is more than 20 µM.

As to `O=C(C1CCCN1C(=O)CCCc1ccc(Cl)cc1)N1CCOCC1` (stereo not drawn) [LC-55], in data set [1], the “POPTc80 LE (ligand efficiency)” value stood at 0.35 kcal/mol per heavy atoms. Further, the IC50 in data set [1] (setting [6]) was determined as 0.44 ± 0.08 µM. Moreover, in data set [1] (setting [7]), the Ki was 0.83 ± 0.11 µM. In addition, the EC50 was determined as 16.2 µM in data set [2] (setting [8]) and 18.6 ± 3.79 µM in data set [2] (setting [9]). Besides, the half-maximal cytotoxic concentration (CC50) at 72 h in data set [3] was more than 200 µM.

`Cc1nn(C)c(C)c1CCC(=O)N1CCCC1C(=O)N1CCCCC1` (stereo not drawn) [LC-56]: the IC50 in data set [1] (setting [6]) is more than 20 µM.

Take `O=C(C1CCCN1C(=O)Cn1sc2ccccc2c1=O)N1CCCCC1` (stereo not drawn) [LC-57]: in data set [1] (setting [6]), the IC50 was more than 20 µM.

Take `COC(OC)C1CCCN1C(=O)C1CCCN1C(=O)OCc1ccccc1` (stereo not drawn) [ZPPD, Z-P-prolinal dimethylacetal]: the “POPTc80 LE (ligand efficiency)” value in data set [1] came out at 0.31 kcal/mol per heavy atoms. Also, in data set [4], the 50% inhibitory concentration (IC50) is 6.7 µM and the Ki was 1.12 ± 0.12 µM. In data set [5], the EC50 was 250 µM.

These data come from PMC11898053, “Structure-Based Identification of Non-covalent Prolyl Oligopeptidase 80 Inhibitors Targeting Trypanosoma cruzi Cell Entry” (Journal of Chemical Information and Modeling, 2025).
